Patent US20250281479A1, “TREATMENT OF CAVERNOUS ANGIOMAS WITH A 4-SUBSTITUTED PIPERIDINE DERIVATIVE” (Neurelis, Inc., priority 2024, published 2025)

How the values were obtained:
[1] = nonclinical pharmacokinetics after a single oral dose; format: in vivo, mice, rats, and monkeys
Experimental: (§1) Exposure to NRL-2017 was similar or greater (up to 5-fold) than that to NRL-1049 in rats when dosed once a day (QD). In monkeys, exposure to NRL-2017 was also greater (up to 33-fold) than that to NRL-1049. When rats were dosed twice a day (BID) for 14 days, there was a decrease in formation of NRL-2017 with exposure to NRL-2017 lower than that of NRL-1049 (ratio as low as 0.06). […] NRL-1049 bound to human serum albumin and human alpha1-acid glycoprotein. […] There was also inhibition of P-glycoprotein (P-gp) (only CACO-2 cells), organic anion transporting polypeptides (OATP) OATP1B1, OATP1B3 and OAT3 (IC50, >100 μM), but no effect on P-gp (MDCK2 cells), breast cancer resistance protein (BCRP), bile salt export pump (BSEP), or MATE2-K. NRL-1049 is a substrate for P-gp, not BCRP. […] This conclusion will be revisited when human pharmacokinetic (PK) data becomes available.

[2] = nonclinical exposure to NRL-2017 versus NRL-1049 in rats; format: in vivo
Experimental: as §1

[3] = nonclinical exposure to NRL-2017 versus NRL-1049 in monkeys; format: in vivo
Experimental: as §1

[4] = tissue distribution and excretion; format: in vivo
Experimental: as §1

[5] = target: ROCK 2 (Homo sapiens, UniProt O75116); test: ROCK 2 inhibition by metabolites; format: biochemical
[6] = first-in-human single ascending dose and food-effect study, plasma pharmacokinetics; format: in vivo; settings: for Tmax: po; for Thalf: mean
Source text: This was a first-in-human, single center, randomized, double-blind, placebo-controlled, single ascending dose (SAD) study, including a food-effect assessment, in healthy male and female subjects. Up to 44 subjects were included in the study.
The study consisted of 4 sequential cohorts of 8 subjects each (6 active and 2 placebo), randomly assigned to receive a single oral dose of NRL-1049 or matching-placebo under fasting state on Day 1 (See Table 2). In each cohort, a sentinel group of 2 subjects (1 active and 1 placebo) were dosed at least 24 hours prior to enrolling the remaining subjects of the cohort, contingent on the safety profile observed during sentinel dosing, as defined by medical judgment.
Subjects were admitted to the clinical research unit (CRU) on Day −1. On Day 1, following an overnight fast, subjects received a single oral dose of their assigned study treatment. Safety, PK, and exploratory biomarker assessments were performed prior to dosing and at assigned time points during study confinement. Subjects were permitted to leave the CRU following the completion of the 48-hour PK postdose sampling and safety assessments. A safety follow-up phone call was performed on Day 8 (±1 day).
Furthermore, a food-effect assessment was integrated into Cohort 3, in which a single oral 150 mg dose of NRL-1049 or placebo was administered to 12 subjects (10 active and 2 placebo) under fed state in Period 2 (refer to schedule of food-effect Cohort 3 in Table 3). After completion of Period 1 and a washout period of at least 14 days, Cohort 3 subjects repeated the screening procedures to ensure they still met the inclusion and exclusion criteria prior to readmission to the CRU for Period 2. Subjects dosed in Period 1 and who returned for Period 2 (a maximum of 6 active and 2 placebo) were administered the same single oral dose in Period 2 under fed state. In addition, at least 4 new subjects were enrolled in Period 2 only, in order to dose a total of 12 subjects (10 active and 2 placebo), in a 1:1 ratio of male to female. If a subject dosed in Period 1 was unable to return for Period 2, a new subject was enrolled to ensure dosing a total of 12 subjects in Period 2. Newly enrolled subjects only received the study drug in the fed state, and as such were not required to undergo Period 1 activities. There was no sentinel approach in Period 2.
Study drugs (NRL-1049 or placebo) were administered in the morning. The date and time of each dose was recorded. For each subject, all scheduled postdose activities and assessments were performed relative to the time of study drug administration. An oral dose of the assigned formulation was administered to subjects with approximately 240 mL of water at ambient temperature. The capsule(s) were swallowed whole and not chewed or broken. Food and fluid intake other than water were controlled for each confinement period and all subjects. In Cohorts 1, 2, 3 (Period 1), and 4, water was permitted as needed except from 1 hour predose until 1 hour after dosing. In Period 2 of Cohort 3, water was permitted as needed throughout the confinement period. For cohorts under fasting state, subjects were required to fast (abstain from food) for at least 10 hours prior to dosing and for at least 4 hours following dosing. In Period 2 of the food-effect cohort only, following an overnight fast of at least 10 hours, subjects received a standardized high-fat, high-calorie meal 30 minutes prior to study drug administration. An example meal would consist of 2 eggs fried in butter, 2 strips of bacon, 2 slices of toast with butter, 4 ounces of hash brown potatoes, and 8 ounces of whole milk. […] Subjects had to eat the total content of this meal in 30 minutes or less. For all cohorts, a standardized lunch was served at least 4 hours after dosing. A supper, light snack, and other meals were served at appropriate times thereafter, but not until after 9 hours postdose. […]

[7] = 150 mg NRL-1049, fed compared to fasting state
[8] = 25 to 250 mg NRL-1049, fasting conditions

ROCK 2, sequence (O75116 whole entry, species assumed): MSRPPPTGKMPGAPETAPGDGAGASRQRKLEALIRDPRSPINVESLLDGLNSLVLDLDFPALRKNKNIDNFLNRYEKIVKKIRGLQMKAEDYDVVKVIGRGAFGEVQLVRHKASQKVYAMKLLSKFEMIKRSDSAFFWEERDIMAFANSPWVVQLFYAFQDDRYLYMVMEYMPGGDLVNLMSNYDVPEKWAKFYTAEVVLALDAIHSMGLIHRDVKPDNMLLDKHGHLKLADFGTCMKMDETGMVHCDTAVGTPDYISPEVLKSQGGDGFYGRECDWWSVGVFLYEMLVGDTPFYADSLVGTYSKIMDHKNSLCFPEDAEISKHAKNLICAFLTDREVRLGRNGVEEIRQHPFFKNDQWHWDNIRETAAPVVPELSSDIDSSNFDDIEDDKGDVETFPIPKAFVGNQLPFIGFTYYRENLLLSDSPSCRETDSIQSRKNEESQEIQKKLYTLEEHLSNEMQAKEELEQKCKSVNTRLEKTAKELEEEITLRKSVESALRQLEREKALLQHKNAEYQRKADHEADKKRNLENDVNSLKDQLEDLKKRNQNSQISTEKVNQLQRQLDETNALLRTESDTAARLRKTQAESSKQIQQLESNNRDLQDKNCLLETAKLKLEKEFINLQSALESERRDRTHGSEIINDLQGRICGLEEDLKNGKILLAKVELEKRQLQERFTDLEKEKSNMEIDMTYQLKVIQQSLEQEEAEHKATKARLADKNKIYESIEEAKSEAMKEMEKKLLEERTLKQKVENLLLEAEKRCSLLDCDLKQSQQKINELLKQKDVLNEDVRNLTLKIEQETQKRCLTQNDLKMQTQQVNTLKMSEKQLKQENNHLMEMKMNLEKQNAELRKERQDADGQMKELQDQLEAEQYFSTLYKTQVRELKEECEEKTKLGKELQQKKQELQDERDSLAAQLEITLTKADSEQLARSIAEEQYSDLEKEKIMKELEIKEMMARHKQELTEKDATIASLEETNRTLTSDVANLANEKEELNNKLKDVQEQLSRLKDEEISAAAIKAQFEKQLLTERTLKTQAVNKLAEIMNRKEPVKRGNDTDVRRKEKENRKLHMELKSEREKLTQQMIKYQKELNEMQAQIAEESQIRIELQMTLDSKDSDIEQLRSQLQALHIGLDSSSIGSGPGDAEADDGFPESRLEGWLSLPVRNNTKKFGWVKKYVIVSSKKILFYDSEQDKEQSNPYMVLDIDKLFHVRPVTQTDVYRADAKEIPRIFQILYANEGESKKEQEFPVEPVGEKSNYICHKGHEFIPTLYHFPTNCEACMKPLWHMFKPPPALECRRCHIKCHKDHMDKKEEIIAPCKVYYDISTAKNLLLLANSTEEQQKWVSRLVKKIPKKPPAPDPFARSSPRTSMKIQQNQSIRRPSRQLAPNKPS

## C[C@@H](N)C1CCN(S(=O)(=O)c2cccc3c(O)nccc23)CC1 [NRL-2017, 1-hydroxy NRL-1049]
[1]; in vivo
  exposure versus dose: greater than dose-proportional
[1]; mouse, rat, monkey, plasma, single oral dose of NRL-1049, range over mice, rats, and monkeys, read-out: elimination phase half-life (t½)
  half-life: 0.58 to 5.7 h
[1]; mouse, rat, monkey, plasma, single oral dose of NRL-1049, range over mice, rats, and monkeys, read-out: time to maximum plasma concentration (Tmax)
  Tmax: 0.5 to 4 h
[2]; rats dosed once a day (QD), similar or greater
  exposure to NRL-2017 relative to NRL-1049: up to 5 fold
[2]; rats dosed twice a day (BID) for 14 days
  exposure ratio NRL-2017 to NRL-1049: ≥ 0.06
[3]
  exposure to NRL-2017 relative to NRL-1049: up to 33 fold
[4]; brain, aorta, inferior vena cava
  tissue distribution: distributed to brain and vascular tissue
[4]; in vivo
  excretion: excreted in urine
[5]
  ROCK 2 inhibition: potent ROCK 2 inhibitor
[6]; [7]
  food effect on mean AUC0-T and AUCinf: remained consistent
  food effect on mean Cmax: decreased
  food effect on mean elimination half-life: remained consistent
[6]; [8]
  manner of increase of AUC0-T with dose: greater than dose proportional
  manner of increase of AUC0-Tmax with dose: dose proportional
  manner of increase of AUCinf with dose: greater than dose proportional
  manner of increase of Cmax with dose: greater than dose proportional
[6]; all dose levels of 25 to 250 mg NRL-1049 fasting and 150 mg fed
  time up to which mean concentrations were quantifiable: up to 48 hours
[6]; both sexes, human, plasma, oral, range over dose range 25 to 250 mg NRL-1049, fasting state, read-out: mean AUC0-T
  AUC(0-t): 0.478 to 6.69 µg·h/mL
[6]; both sexes, human, plasma, oral, range over dose range 25 to 250 mg NRL-1049, fasting state, read-out: mean AUC0-Tmax
  AUC: 0.0356 to 0.457 µg·h/mL
[6]; both sexes, human, plasma, oral, range over dose range 25 to 250 mg NRL-1049, fasting state, read-out: mean AUCinf
  AUC(0-inf): 0.546 to 7.04 µg·h/mL
[6]; both sexes, human, plasma, oral, range over dose range 25 to 250 mg NRL-1049, fasting state, read-out: mean Cmax
  Cmax: 0.0542 to 1.52 µg/mL
[6]; both sexes, human, plasma, oral, range over the dose groups 25 to 250 mg NRL-1049, fasting state, read-out: mean elimination half-life
  half-life: 12.3 to 17.3 h
[6]; both sexes, human, plasma, 150 mg, plasma metabolite NRL-2017, median, 150 mg NRL-1049 single oral, Fasted, Cohort 3, N = 6, read-out: Tmax
  Tmax: 1.13 h
[6]; both sexes, human, plasma, 150 mg, plasma metabolite NRL-2017, median, 150 mg NRL-1049 single oral, Fed, Cohort 3, N = 10, read-out: Tmax
  Tmax: 1.75 h
[6]; both sexes, human, plasma, range over single oral doses of 25 to 250 mg NRL-1049, fasting state, read-out: median time to maximum observed plasma concentration (Tmax)
  Tmax: 0.88 to 1.63 h
[6]; plasma metabolite NRL-2017, 150 mg NRL-1049 single oral, Fasted, Cohort 3, N = 6
  Thalf: 12.28 h
[6]; plasma metabolite NRL-2017, 150 mg NRL-1049 single oral, Fed, Cohort 3, N = 10
  Thalf: 12.37 h
